US20260224536A1, “ARYL HETEROCYCLIC KV1.3 INHIBITOR, PREPARATION METHOD THEREFOR, AND USE THEREOF” (SHANGHAI SHENSHI WISE TECHNOLOGY CO., LTD., priority 2022, published 2026)

Biological target: Kv1.3 potassium channel (Homo sapiens, UniProt P22001)
Assay: Whole-cell patch-clamp assay for inhibitory activity against Kv1.3 (peak current)
Type: cell-based
Conditions: HEK293 cells stably expressing Kv1.3, patch-clamp
From the text: The voltage stimulation protocol for recording whole-cell Kv1.X potassium currents via patch-clamp was as follows. After formation of a whole-cell seal, the cell membrane voltage was clamped at −80 mV, and then stepped to +40 mV for 500 ms. […] The test data were acquired by EPC-10 amplifier (HEKA) and stored in the PatchMaster (HEKA) software. Recording electrodes were drawn from capillary glass tubes using a microelectrode puller. Under an inverted microscope, the recording electrode was brought into contact with the cell surface by manipulating a microelectrode manipulator. Negative-pressure suction was applied to form a GΩ seal. After formation of the […], a rapid capacitance compensation was given. The application of negative pressure was continued to rupture the cell membrane, forming a whole-cell recording mode. Then, a slow capacitance compensation was given, and the membrane capacitance and series resistance were recorded. No current leakage compensation was provided. Once the whole-cell recorded Kv1.X current stabilized, drug administration was started. Each drug concentration was allowed to act for 5 min (or until the current reached a steady state) before the next concentration was tested. Multiple concentrations were tested for each test compound. The cover glass plated with the cells was placed in a recording bath of the inverted microscope. The test compound and the compound-free extracellular fluid were allowed to sequentially flow through the recording bath from low concentrations to high concentrations using a gravity perfusion method, thus acting on the cells, and liquid exchange was performed using a vacuum pump during recording. For each cell, the current detected in the compound-free extracellular liquid was used as its own control group. The test was independently repeated three times using at least three cells per concentration. All electrophysiological experiments were performed at room temperature. […] First, the peak current after the action of each drug concentration and the peak current of the blank control were standardized and then the inhibition rate corresponding to each drug concentration was calculated Subsequently, the mean, standard deviation (SD), and standard error (SE) were calculated for the inhibition rate corresponding to each concentration. Using the above equation, the IC50 value for each compound was calculated, and the dose-dependent effect was subjected to non-linear fitting, where IC50 is the half maximal inhibitory concentration. The IC50 calculation and the curve fitting were performed using the GraphPad Prism software.

Sequence of Kv1.3 potassium channel (P22001 whole entry): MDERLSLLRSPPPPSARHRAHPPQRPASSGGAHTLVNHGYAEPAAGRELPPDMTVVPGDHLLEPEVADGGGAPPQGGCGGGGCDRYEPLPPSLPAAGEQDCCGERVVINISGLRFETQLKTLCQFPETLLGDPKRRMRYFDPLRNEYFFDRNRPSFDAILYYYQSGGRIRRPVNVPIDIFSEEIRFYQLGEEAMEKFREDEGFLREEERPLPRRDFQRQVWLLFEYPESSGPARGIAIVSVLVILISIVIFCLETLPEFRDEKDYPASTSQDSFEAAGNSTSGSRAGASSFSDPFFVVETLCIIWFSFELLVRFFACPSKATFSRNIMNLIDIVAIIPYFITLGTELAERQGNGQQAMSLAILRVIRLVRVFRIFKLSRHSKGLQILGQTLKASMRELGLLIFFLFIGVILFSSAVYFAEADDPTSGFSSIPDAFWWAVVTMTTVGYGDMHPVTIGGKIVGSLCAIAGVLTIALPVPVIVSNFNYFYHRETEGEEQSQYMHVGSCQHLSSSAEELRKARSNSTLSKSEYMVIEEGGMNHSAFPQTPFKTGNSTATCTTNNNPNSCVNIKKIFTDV

Q: How did the IC50 turn out when `COC(=O)N1CCC(c2nnc3n2C[C@H](c2c(O)ccc(Cl)c2Cl)C3)C1` (single isomer, unassigned) [Example 50] was run?
A: The IC50 was 10.9 nM.

Q: How did the IC50 turn out when `O=C1CC(c2nnc3n2C[C@H](c2c(O)ccc(Cl)c2Cl)C3)CN1` (single isomer, unassigned) [Example 53] was run?
A: Its IC50 is 15 nM.

Q: `O=C1CC(c2nnc3n2C[C@H](c2c(O)ccc(Cl)c2Cl)C3)CCN1` (single isomer, unassigned) [Example 56] was tested. Which IC50 did it give?
A: Its IC50 is 20.6 nM.

Q: For `O=C1CC(c2nnc3n2C[C@H](c2c(O)ccc(Cl)c2Cl)C3)CCN1` (single isomer, unassigned) [Example 57], which IC50 is on record?
A: The IC50 was 11.4 nM.

Q: How did the IC50 turn out when `Oc1ccc(Cl)c(Cl)c1[C@@H]1Cc2nnc(C3CCCNC3)n2C1` (single isomer, unassigned) [Example 58] was run?
A: The IC50 was 12 nM.

Q: `CC1(c2nnc3n2C[C@H](c2c(O)ccc(Cl)c2Cl)C3)CCOC1` (single isomer, unassigned) [Example 64] was tested. Which IC50 did it give?
A: Its IC50 is 42.8 nM.

Q: For `Oc1ccc(Cl)c(Cl)c1[C@@H]1Cc2nnc(C3CCCOC3)n2C1` (single isomer, unassigned) [Example 69], which IC50 is on record?
A: Its IC50 is 53 nM.

Q: How did the IC50 turn out when `Oc1ccc(Cl)c(Cl)c1C1Cc2nnc(C3CCN(C4CCCCC4)CC3)n2C1` (single isomer, unassigned) [Example 79] was run?
A: The IC50 was 14.8 nM.

Q: `CC(C)N1CCC(c2cnc3n2CC(c2c(O)ccc(Cl)c2Cl)C3)CC1` (single isomer, unassigned) [Example 94] was tested. Which IC50 did it give?
A: Its IC50 is 6.09 nM.

Q: `CCn1ncc2c1CC(c1c(O)ccc(Cl)c1Cl)C2` (single isomer, unassigned) [Example 118] was tested. Which IC50 did it give?
A: Its IC50 is 14.6 nM.

Q: How did the IC50 turn out when `OCc1nnc2n1C[C@@H](c1c(O)ccc(Cl)c1Cl)C2` [Example 1, (R)-3,4-Dichloro-2-(3-(hydroxymethyl)-6,7-dihydro-5H-pyrrolo[2,1-c][1,2,4]triazol-6-yl)phenol] was run?
A: The IC50 was 94.3 nM.

Q: Which IC50 does the source give for `CC(C)(C#N)c1nnc2n1CC(c1c(O)ccc(Cl)c1Cl)C2` (stereo not shown) [Example 4, 2-(6-(2,3-Dichloro-6-hydroxyphenyl)-6,7-dihydro-5H-pyrrolo[2,1-c][1,2,4]triazol-3-yl)-2-methylpropanenitrile] here?
A: The IC50 was 45.2 nM.

Q: With `Oc1ccc(Cl)c(Cl)c1C1Cc2nnc(C3CCCCC3)n2C1` (stereo not shown) [Example 5, 3,4-Dichloro-2-(3-cyclohexyl-6,7-dihydro-5H-pyrrolo[2,1-c][1,2,4]triazol-6-yl)phenol] as the molecule, how does the IC50 read?
A: Its IC50 is 39 nM.

Q: How did the IC50 turn out when `N#Cc1ccc(-c2nnc3n2CC(c2c(O)ccc(Cl)c2Cl)C3)cc1` (stereo not shown) [Example 6, 4-(6-(2,3-dichloro-6-hydroxyphenyl)-6,7-dihydro-5H-pyrrolo[2,1-c][1,2,4]triazol-3-yl)benzonitrile] was run?
A: The IC50 was 13.2 nM.

Q: How did the IC50 turn out when `Oc1ccc(Cl)c(Cl)c1C1Cc2nnc(-c3ccc4[nH]ncc4c3)n2C1` (stereo not shown) [Example 7, 2-(3-(1H-Indazol-5-yl)-6,7-dihydro-5H-pyrrolo[2,1-c][1,2,4]triazol-6-yl)-3,4-dichlorophenol] was run?
A: The IC50 was 12 nM.

Q: `CC(C)c1nnc2n1CC(c1c(O)ccc(Cl)c1Cl)C2` (stereo not shown) [Example 8, 3,4-Dichloro-2-(3-isopropyl-6,7-dihydro-5H-pyrrolo[2,1-c][1,2,4]triazol-6-yl)phenol] was tested. Which IC50 did it give?
A: Its IC50 is 20.6 nM.

Q: `N#Cc1cccc(-c2nnc3n2CC(c2c(O)ccc(Cl)c2Cl)C3)c1` (stereo not shown) [Example 9, 3-(6-(2,3-dichloro-6-hydroxyphenyl)-6,7-dihydro-5H-pyrrolo[2,1-c][1,2,4]triazol-3-yl)benzonitrile] was tested. Which IC50 did it give?
A: Its IC50 is 17.1 nM.

Q: For `O=C(C1CC1)N1CCC(c2nnc3n2CC(c2c(O)ccc(Cl)c2Cl)C3)CC1` (stereo not shown) [Example 10, Cyclopropyl(4-(6-(2,3-dichloro-6-hydroxyphenyl)-6,7-dihydro-5H-pyrrolo[2,1-c][1,2,4]triazol-3-yl)piperidin-1-yl)methanone], which IC50 is on record?
A: The IC50 was 27.7 nM.

Q: Which IC50 does the source give for `Oc1ccc(Cl)c(Cl)c1C1Cc2nnc(C3CCN(C4CC4)CC3)n2C1` (stereo not shown) [Example 11, 3,4-Dichloro-2-(3-(1-cyclopropylpiperidin-4-yl)-6,7-dihydro-5H-pyrrolo[2,1-c][1,2,4]triazol-6-yl)phenol] here?
A: Its IC50 is 9.24 nM.

Q: How did the IC50 turn out when `O=C(c1nnc2n1CC(c1c(O)ccc(Cl)c1Cl)C2)N1CCC(O)C1` (stereo not shown) [Example 12, (6-(2,3-Dichloro-6-hydroxyphenyl)-6,7-dihydro-5H-pyrrolo[2,1-c][1,2,4]triazol-3-yl)(3-hydroxypyrrolidin-1-yl)methanone] was run?
A: The IC50 was 30.9 nM.

Q: `O=C(c1nnc2n1CC(c1c(O)ccc(Cl)c1Cl)C2)N1CCNCC1` (stereo not shown) [Example 13, (6-(2,3-Dichloro-6-hydroxyphenyl)-6,7-dihydro-5H-pyrrolo[2,1-c][1,2,4]triazol-3-yl)(piperazin-1-yl)methanone] was tested. Which IC50 did it give?
A: The IC50 was 5.09 nM.

Q: `CC(C)N1CCN(C(=O)c2nnc3n2CC(c2c(O)ccc(Cl)c2Cl)C3)CC1` (stereo not shown) [Example 14, (6-(2,3-Dichloro-6-hydroxyphenyl)-6,7-dihydro-5H-pyrrolo[2,1-c][1,2,4]triazol-3-yl)(4-isopropylpiperazin-1-yl)methanone] was tested. Which IC50 did it give?
A: The IC50 was 19.6 nM.

Q: For `Oc1ccc(Cl)c(Cl)c1C1Cc2nnc(CC(F)(F)F)n2C1` (stereo not shown) [Example 15, 3,4-Dichloro-2-(3-(2,2,2-trifluoroethyl)-6,7-dihydro-5H-pyrrolo[2,1-c][1,2,4]triazol-6-yl)phenol], which IC50 is on record?
A: Its IC50 is 26.8 nM.

Q: For `CC(C)(C)c1nnc2n1CC(c1c(O)ccc(Cl)c1Cl)C2` (stereo not shown) [Example 16, 2-(3-(tert-Butyl)-6,7-dihydro-5H-pyrrolo[2,1-c][1,2,4]triazol-6-yl)-3,4-dichlorophenol], which IC50 is on record?
A: Its IC50 is 74.7 nM.

Q: Which IC50 does the source give for `CC(C)N1CCC(Cc2nnc3n2CC(c2c(O)ccc(Cl)c2Cl)C3)CC1` (stereo not shown) [Example 18, 3,4-Dichloro-2-(3-((1-isopropylpiperidin-4-yl)methyl)-6,7-dihydro-5H-pyrrolo[2,1-c][1,2,4]triazol-6-yl)phenol] here?
A: Its IC50 is 5.76 nM.

Q: With `Oc1ccc(Cl)c(Cl)c1C1Cc2nnc(CN3CCC(O)C3)n2C1` (stereo not shown) [Example 19, 1-((6-(2,3-Dichloro-6-hydroxyphenyl)-6,7-dihydro-5H-pyrrolo[2,1-c][1,2,4]triazol-3-yl)methyl)pyrrolidin-3-ol] as the molecule, how does the IC50 read?
A: Its IC50 is 46.3 nM.

Q: How did the IC50 turn out when `Oc1ccc(Cl)c(Cl)c1C1Cc2nnc(CN3CCOCC3)n2C1` (stereo not shown) [Example 20, 3,4-Dichloro-2-(3-(morpholinomethyl)-6,7-dihydro-5H-pyrrolo[2,1-c][1,2,4]triazol-6-yl)phenol] was run?
A: The IC50 was 35.3 nM.

Q: With `O=C(c1nnc2n1CC(c1c(O)ccc(Cl)c1Cl)C2)N1CCOCC1` (stereo not shown) [Example 21, (6-(2,3-Dichloro-6-hydroxyphenyl)-6,7-dihydro-5H-pyrrolo[2,1-c][1,2,4]triazol-3-yl)(morpholino)methanone] as the molecule, how does the IC50 read?
A: Its IC50 is 48.6 nM.

Q: How did the IC50 turn out when `Oc1ccc(Cl)c(Cl)c1C1Cc2nnc(C3CCN(C4CCOCC4)CC3)n2C1` (stereo not shown) [Example 22, 3,4-Dichloro-2-(3-(1-(tetrahydro-2H-pyran-4-yl)piperidin-4-yl)-6,7-dihydro-5H-pyrrolo[2,1-c][1,2,4]triazol-6-yl)phenol] was run?
A: The IC50 was 13.6 nM.

Q: How did the IC50 turn out when `Oc1ccc(Cl)c(Cl)c1C1Cc2nnc(C(F)F)n2C1` (stereo not shown) [Example 25, 3,4-Dichloro-2-(3-(difluoromethyl)-6,7-dihydro-5H-pyrrolo[2,1-c][1,2,4]triazol-6-yl)phenol] was run?
A: The IC50 was 11.1 nM.

Q: For `OCCc1nnc2n1C[C@H](c1c(O)ccc(Cl)c1Cl)C2` [Example 32, (S)-3,4-Dichloro-2-(3-(2-hydroxyethyl)-6,7-dihydro-5H-pyrrolo[2,1-c][1,2,4]triazol-6-yl)phenol], which IC50 is on record?
A: Its IC50 is 13 nM.

Q: With `Oc1ccc(Cl)c(Cl)c1[C@@H]1Cc2nnc(C3CCOCC3)n2C1` [Example 33, (S)-3,4-Dichloro-2-(3-(tetrahydro-2H-pyran-4-yl)-6,7-dihydro-5H-pyrrolo[2,1-c][1,2,4]triazol-6-yl)phenol] as the molecule, how does the IC50 read?
A: The IC50 was 47.8 nM.

Q: `CCc1nnc2n1C[C@H](c1c(O)ccc(Cl)c1Cl)C2` [Example 34, (S)-3,4-Dichloro-2-(3-ethyl-6,7-dihydro-5H-pyrrolo[2,1-c][1,2,4]triazol-6-yl)phenol] was tested. Which IC50 did it give?
A: Its IC50 is 9.75 nM.

Q: Which IC50 does the source give for `Oc1ccc(Cl)c(Cl)c1[C@@H]1Cc2nnc(C3CCNCC3)n2C1` [Example 35, (S)-3,4-Dichloro-2-(3-(piperidin-4-yl)-6,7-dihydro-5H-pyrrolo[2,1-c][1,2,4]triazol-6-yl)phenol] here?
A: Its IC50 is 3.15 nM.

Q: For `CC(C)N1CCC(c2nnc3n2C[C@H](c2c(O)ccc(Cl)c2Cl)C3)CC1` [Example 36, (S)-3,4-Dichloro-2-(3-(1-isopropylpiperidin-4-yl)-6,7-dihydro-5H-pyrrolo[2,1-c][1,2,4]triazol-6-yl)phenol], which IC50 is on record?
A: Its IC50 is 6.8 nM.

Q: With `CC(=O)N1CCC(c2nnc3n2C[C@H](c2c(O)ccc(Cl)c2Cl)C3)CC1` [Example 37, (S)-1-(4-(6-(2,3-Dichloro-6-hydroxyphenyl)-6,7-dihydro-5H-pyrrolo[2,1-c][1,2,4]triazol-3-yl)piperidin-1-yl)ethan-1-one] as the molecule, how does the IC50 read?
A: Its IC50 is 12.7 nM.

Q: Which IC50 does the source give for `Cn1cc(-c2nnc3n2C[C@H](c2c(O)ccc(Cl)c2Cl)C3)ccc1=O` [Example 38, (S)-5-(6-(2,3-Dichloro-6-hydroxyphenyl)-6,7-dihydro-5H-pyrrolo[2,1-c][1,2,4]triazol-3-yl)-1-methylpyridin-2(1H)-one] here?
A: The IC50 was 43.1 nM.
